Measured values from patent publication US4788206A, “Pentadieneamides” (Hoffmann-La Roche Inc., priority 1987, dated 1988).

Tests used:
[1] = target: T1, PAF Binding, dog platelets (Canis lupus familiaris, UniProt A0A8I3NSH0); assay: PAF Binding Assay (inhibition of 3H-PAF binding to washed dog platelets); conditions: dog platelets, 3H-PAF, 10 minutes at room temperature; read-out: Inhib of PAF Binding IC50
T1 construct: Washed platelets were prepared by resuspending the platelet pellet once with PBS containing 1 mM EDTA; from tissue; host or cells: washed platelets from dog blood
T1 sequence (A0A8I3NSH0 1-343): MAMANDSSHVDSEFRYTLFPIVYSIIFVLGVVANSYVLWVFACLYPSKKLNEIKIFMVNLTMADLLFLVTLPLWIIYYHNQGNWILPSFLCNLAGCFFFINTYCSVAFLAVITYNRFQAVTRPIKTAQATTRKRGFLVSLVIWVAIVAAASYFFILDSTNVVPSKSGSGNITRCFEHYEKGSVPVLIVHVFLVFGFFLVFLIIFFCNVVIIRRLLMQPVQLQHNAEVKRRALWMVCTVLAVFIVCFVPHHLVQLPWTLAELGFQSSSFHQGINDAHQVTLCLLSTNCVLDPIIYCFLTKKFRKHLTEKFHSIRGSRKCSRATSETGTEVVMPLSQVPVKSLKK
Experimental: The binding assay was done in 400 μl polyethylene microcentrifuge tubes (Beckman) containing 50 μl of an oil mixture of 2 parts Siliconol AR200 (Serva): 1 part Silicone Fluid (Arthur H. Thomas). Buffer, standards, or analogs (150 μl total volume) were added to the tubes. Radiolabelled ^3 H-PAF (50 μl) was then added to the tubes. The reaction was started by the addition of 50 μl of dog platelets (2×10^7 platelets). The tubes were capped, inverted several times to mix, and incubated for 10 minutes at room temperature. The platelets were separated from the incubation mixture by centrifuging 1 minute in a Beckman Microfuge B centrifuge. The tip of the microfuge tube was cut off, and the platelets were washed out of the tip with 200 μl of 50% methanol (Burdick and Jackson). Aquasol (NEN, 10 ml) was added and the radioactivity in the samples was determined using an LS 8100 Beckman liquid scintillation counter linked to a Techtran tape recorder. Data was processed through an in-house computer system. Alternatively, radioactivity was determined using a Searle Mark III liquid scintillation counter linked to a Iso-Data microprocessor.
(b) Preparation of Platelets
Blood was collected from anesthesized or unanesthesized dogs into 50 ml plastic centrifuge tubes containing 3.8% sodium citrate as the anticoagulant (1 volume of citrate/9 volumes of blood). The red cells were removed by centrifugation for 15 minutes at 600 rpm (100-125 g) at room temperature. An aliquot of the supernatant platelet rich plasma (PRP) was saved for cell counting and the remainder was acidified to PH 6.5 with 0.15M citric acid. The platelet pellet was obtained after a 10 minute centrifugation at 2000 rpm (1000 g) at room temperature. Washed platelets were prepared by resuspending the platelet pellet once with PBS containing 1 mM EDTA, centrifuging as noted, and then resuspending the platelets in 0.1% BSA-PBS. An aliquot of the washed platelets was counted. Platelets used for binding assays were diluted to 2×10^7 platelets/assay tube (4×10^8 platelets/ml). Platelet counting was done using a Royco Cell-Crit 921.

[2] = test system: PAF-Induced Bronchoconstriction; assay: PAF Induced Bronchoconstriction Assay; format: in vivo, guinea pig; conditions: for inhibition in vivo at 50 mg/kg: Cavia porcellus, po, 2-hour pretreatment, read-out: Percent Inhib. of PAF-Induced Bronchoconstriction, 50 mg/Kg p.o.; for inhibition in vivo at 50 mg/kg / Percent Inhib. of PAF-Induced Bronchoconstriction, 50 mg/Kg p.o. (6 hr) / Percent Inhib. of PAF-Induced Bronchoconstriction, 50 mg/Kg p.o. (8 hr): 50 mg/Kg p.o.; for Percent Inhib. of PAF-Induced Bronchoconstriction, mg/Kg i.v.: i.v. (dose not given), 1 minute pretreatment, PAF 1.0 μg/kg i.v.
Experimental: PAF Induced Bronchoconstriction Assay
Male animals (Hartlet Strain 400-500 g) were anesthetized with urethane (2 g/kg. i.p.). Each animals' trachea was cannulated and the guinea pigs were repirated using a Harvard small animal rodent respirator (3.0 cc stroke volume, 40 breaths per min.). Tracheal pressure was recorded from a cannula inserted in the trachea and connected to a Statham Pressure Transducer.
The jugular vein was cannulated for administering compounds. Spontaneous breathing was arrested with succinylcholine (1.2 mg/kg. i.v.) administered 2 minutes prior to intravenous injection of platelet activating factor (PAF).
For, the intravenous testing, the guinea pig is given a 5-minute pretreatment with propranolol at a dose of 0.1 mg/kg intravenously. The test compound is administered with a 1 minute pretreatment prior to intravenous challenge with PAF. The animal is than challenged with a 1.0 μg/kg intravenous dose of PAF and the change is tracheal pressure is measured.
For the oral testing, the procedure includes a 2-hour pretreatment period with the test compound administered through an oral gavage tube. Propranolol or succinylcholine and PAF are administered intravenously, and the change in tracheal pressure measured.
The change is tracheal pressure is determined by subtracting the steady state baseline achieved after administration of succinylcholine from the peak bronchoconstriction seen after challenge with PAF. The mean is calculated for each test compound and compared to the mean of the control animals to give the percent inhibition of bronchoconstriction. The standard error is calcuated as the standard error of the mean.

`COc1ccc(/C(=C\C=C\C(=O)N[C@H](C)CCCc2cccnc2)C(C)C)cc1` [[R-(2E,4Z)]-5-(4-methoxyphenyl)-6-methyl-N-[1-methyl-4-(3-pyridinyl)butyl]-2,4-heptadienamide] was tested, and the IC50 [1] was 40 nM, the inhibition in vivo at 50 mg/kg [2] was 71 ± 14% and the “Percent Inhib. of PAF-Induced Bronchoconstriction, mg/Kg i.v.” value [2] was 89 ± 3%.
With `COc1ccc(/C(=C/C=C/C(=O)N[C@H](C)CCCc2cccnc2)c2cccs2)cc1` [[R-(2E,4Z)]-5-(4-methoxyphenyl)-N-[1-methyl-4-(3-pyridinyl)butyl]-5-(2-thienyl)-2,4-pentadienamide] the IC50 [1] was 16 nM, the “Percent Inhib. of PAF-Induced Bronchoconstriction, 50 mg/Kg p.o. (6 hr)” value [2] was 27 ± 6% and the inhibition in vivo at 50 mg/kg [2] was 96 ± 2%. For the same molecule, the “Percent Inhib. of PAF-Induced Bronchoconstriction, mg/Kg i.v.” value [2] was 97 ± 1%.
For `COc1ccc(/C(=C\C=C\C(=O)N[C@H](C)CCCc2cccnc2)C2CC2)cc1` [[R-(2E,4Z)]-5-cyclopropyl-5-(4-methoxyphenyl)-N-1-methyl-4-(3-pyridinyl)butyl]-2,4-pentadienamide], the IC50 [1] was 70 nM, the inhibition in vivo at 50 mg/kg [2] was 63 ± 19% and the “Percent Inhib. of PAF-Induced Bronchoconstriction, mg/Kg i.v.” value [2] was 85 ± 4%.
In the case of `COc1ccc(C(=C/C=C/C(=O)N[C@H](C)CCCc2cccnc2)c2ccc(OC)c(OC)c2)cc1OC` [[R-(E)]-5,5-bis(3,4-dimethoxyphenyl)-N-[1-methyl-4-(3-pyridinyl)butyl]-2,4-pentadienamide], the IC50 [1] is reported as 50 nM, the inhibition in vivo at 50 mg/kg [2] is reported as 66 ± 19% and the “Percent Inhib. of PAF-Induced Bronchoconstriction, mg/Kg i.v.” value [2] is reported as 99 ± 1%.
`Cc1ccc(C(=C/C=C/C(=O)N[C@H](C)CCCc2cccnc2)c2ccc(C)cc2)cc1` [[R-(E)]-5,5-bis(4-methylphenyl)-N-[1-methyl-4-(3-pyridinyl)butyl]-2,4-pentadienamide] was tested, and the IC50 [1] was 250 nM, the “Percent Inhib. of PAF-Induced Bronchoconstriction, 50 mg/Kg p.o. (8 hr)” value [2] was 14 ± 16% and the inhibition in vivo at 50 mg/kg [2] was 91 ± 7%. For the same molecule, the “Percent Inhib. of PAF-Induced Bronchoconstriction, mg/Kg i.v.” value [2] was 97 ± 3%.
For `CC[C@H](CCCc1cccnc1)NC(=O)/C=C/C=C(c1ccc(OC)cc1)c1ccc(OC)cc1` [[R-(E)]-N-[1-ethyl-4-(3-pyridinyl)butyl]-5,5-bis(4-methoxyphenyl)-2,4-pentadienamide], the IC50 [1] was 120 nM, the “Percent Inhib. of PAF-Induced Bronchoconstriction, 50 mg/Kg p.o. (8 hr)” value [2] was 85 ± 12% and the inhibition in vivo at 50 mg/kg [2] was 99 ± 1%. The “Percent Inhib. of PAF-Induced Bronchoconstriction, mg/Kg i.v.” value [2] was 99 ± 0.4%.
With `CCCCCC(=C/C=C/C(=O)N[C@H](C)CCCc1cccnc1)CCCCC` [[R-(E)]-N-[1-methyl-4-(3-pyridinyl)butyl]-5-pentyl-2,4-decadienamide] the IC50 [1] was 100 nM, the inhibition in vivo at 50 mg/kg [2] was 4 ± 4% and the “Percent Inhib. of PAF-Induced Bronchoconstriction, mg/Kg i.v.” value [2] was 78 ± 7%.
`CCCCC/C(=C\C=C\C(=O)N[C@H](C)CCCc1cccnc1)c1ccc(OC)c(OC)c1` [[R-(E,E)]-5-(3,4-dimethoxyphenyl)-N-[1-methyl-4-(3-pyridinyl)butyl]-2,4-decadienamide] was tested, and the IC50 [1] was 6 nM and the “Percent Inhib. of PAF-Induced Bronchoconstriction, mg/Kg i.v.” value [2] was 99 ± 0.4%.
`CCCCC/C(=C\C=C\C(=O)N[C@H](C)CCCc1cccnc1)c1cccc(F)c1` [[R-(E,E)]-5-(3-fluorophenyl)-N-[1-methyl-4-(3-pyridinyl)butyl]-2,4-decadienamide] was tested, and the IC50 [1] was 30 nM and the “Percent Inhib. of PAF-Induced Bronchoconstriction, mg/Kg i.v.” value [2] was 93 ± 0.9%.
`CCCC/C(=C\C=C\C(=O)N[C@H](C)CCCc1cccnc1)c1cccc(OC)c1` [[R-(E,E)]-5-(3-methoxyphenyl)-N-[1-methyl-4-(3-pyridinyl)butyl]-2,4-nonadienamide] was tested, and the IC50 [1] was 15 nM and the “Percent Inhib. of PAF-Induced Bronchoconstriction, mg/Kg i.v.” value [2] was 91 ± 5%.
For `CCCCC/C(=C\C=C\C(=O)N[C@H](C)CCCc1cccnc1)c1ccc(F)cc1` [[R-(E,E)]-5-(4-fluorophenyl)-N-[1-methyl-4-(3-pyridinyl)butyl]-2,4-decadienamide], the IC50 [1] was 40 nM and the “Percent Inhib. of PAF-Induced Bronchoconstriction, mg/Kg i.v.” value [2] was 95 ± 1%.
`COc1ccc(/C(=C/C=C/C(=O)N[C@H](C)CCCc2cccnc2)C(C)C)cc1` [[R-(E,E)]-5-(4-methoxyphenyl)-6-methyl-N-[1-methyl-4-(3-pyridinyl)butyl]-2,4-heptadienamide] was tested, and the IC50 [1] was 30 nM and the “Percent Inhib. of PAF-Induced Bronchoconstriction, mg/Kg i.v.” value [2] was 38 ± 11%.
With `CCCCCCCCCCCC/C(=C\C=C\C(=O)N[C@H](C)CCCc1cccnc1)c1ccc(OC)cc1` [[R-(E,E)]-5-(4-methoxyphenyl)-N-[1-methyl-4-(3-pyridinyl)butyl]-2,4-heptadecadienamide] the IC50 [1] was 45 nM and the “Percent Inhib. of PAF-Induced Bronchoconstriction, mg/Kg i.v.” value [2] was 28 ± 2%.
`CC/C(=C\C=C\C(=O)N[C@H](C)CCCc1cccnc1)c1ccc(OC)cc1` [[R-(E,E)]-5-(4-methoxyphenyl)-N-[1-methyl-4-(3-pyridinyl)butyl]-2,4-heptadienamide] was tested, and the IC50 [1] was 30 nM, the inhibition in vivo at 50 mg/kg [2] was 84 ± 2% and the “Percent Inhib. of PAF-Induced Bronchoconstriction, mg/Kg i.v.” value [2] was 72 ± 13%.
With `COc1ccc(/C(C)=C/C=C/C(=O)N[C@H](C)CCCc2cccnc2)cc1` [[R-(E,E)]-5-(4-methoxyphenyl)-N-[1-methyl-4-(3-pyridinyl)butyl]-2,4-hexadienamide] the IC50 [1] was 25 nM and the “Percent Inhib. of PAF-Induced Bronchoconstriction, mg/Kg i.v.” value [2] was 42 ± 16%.
With `CCCC/C(=C\C=C\C(=O)N[C@H](C)CCCc1cccnc1)c1ccc(OC)cc1` [[R-(E,E)]-5-(4-methoxyphenyl)-N-[1-methyl-4-(3-pyridinyl)butyl]-2,4-nonadienamide] the IC50 [1] was 14 nM, the inhibition in vivo at 50 mg/kg [2] was 98 ± 1% and the “Percent Inhib. of PAF-Induced Bronchoconstriction, mg/Kg i.v.” value [2] was 99 ± 1%.
For `CCC/C(=C\C=C\C(=O)N[C@H](C)CCCc1cccnc1)c1ccc(OC)cc1` [[R-(E,E)]-5-(4-methoxyphenyl)-N-[1-methyl-4-(3-pyridinyl)butyl]-2,4-octadienamide], the IC50 [1] was 50 nM, the inhibition in vivo at 50 mg/kg [2] was 9 ± 13% and the “Percent Inhib. of PAF-Induced Bronchoconstriction, mg/Kg i.v.” value [2] was 86 ± 7%.
`COc1ccc(/C=C/C=C/C(=O)N[C@H](C)CCCc2cccnc2)cc1` [[R-(E,E)]-5-(4-methoxyphenyl)-N-[1-methyl-4-(3-pyridinyl)butyl]-2,4-pentadienamide] was tested, and the IC50 [1] was 30 nM and the “Percent Inhib. of PAF-Induced Bronchoconstriction, mg/Kg i.v.” value [2] was 17 ± 13%.
With `CCCCCCCC/C(=C\C=C\C(=O)N[C@H](C)CCCc1cccnc1)c1ccc(OC)cc1` [[R-(E,E)]-5-(4-methoxyphenyl)-N-[1-methyl-4-(3-pyridinyl)butyl]-2,4-tridecadienamide] the IC50 [1] was 5 nM, the inhibition in vivo at 50 mg/kg [2] was 84 ± 8% and the “Percent Inhib. of PAF-Induced Bronchoconstriction, mg/Kg i.v.” value [2] was 98 ± 1%.
In the case of `CCCCCC/C(=C\C=C\C(=O)N[C@H](C)CCCc1cccnc1)c1ccc(OC)cc1` [[R-(E,E)]-5-(4-methoxyphenyl)-N-[1-methyl-4-(3-pyridinyl)butyl]-2,4-undecadienamide], the IC50 [1] is reported as 9 nM, the inhibition in vivo at 50 mg/kg [2] is reported as 96 ± 1% and the “Percent Inhib. of PAF-Induced Bronchoconstriction, mg/Kg i.v.” value [2] is reported as 100 ± 1%.
In the case of `COc1ccc(/C(=C/C=C/C(=O)N[C@H](C)CCCc2cccnc2)C2CCCCC2)cc1` [[R-(E,E)]-5-cyclohexyl-5-(4-methoxyphenyl)-N-[1-methyl-4-(3-pyridinyl)butyl]-2,4-pentadienamide], the IC50 [1] is reported as 20 nM, the “Percent Inhib. of PAF-Induced Bronchoconstriction, 50 mg/Kg p.o. (6 hr)” value [2] is reported as 12 ± 10% and the inhibition in vivo at 50 mg/kg [2] is reported as 97 ± 1%. For the same molecule, the “Percent Inhib. of PAF-Induced Bronchoconstriction, mg/Kg i.v.” value [2] was 73 ± 17%.
